Test results taken from US11819510B2, “Food composition for ameliorating cerebrovascular diseases containing 2′- fucosyllactose and pharmaceutical composition for preventing or treating cerebrovascular diseases containing 2′-fucosyllactose” (Advanced Protein Technologies Corp., priority 2020, dated 2023).

What was measured:
[1] = test system: carotid artery thrombosis; test: FeCl3-induced carotid artery thrombosis mouse model, blood flow measurement; type: in vivo; conditions: 7 days, FeCl3 (10%) mouse model, vehicle 7.47 minutes
Description: Male C57BL/6 mice (6-8 weeks old) used in the experiment were purchased from Dooyeol Biotech Co., Ltd., were acclimatized for a predetermined period at 23±1° C. and 56% relative humidity while a general diet was provided thereto for 1 week, and were then used for the experiment. In the following, animal experiments were performed in accordance with the guide for the animal study protocols approved by the Korea Institute of Oriental Medicine Institutional Animal Care and Use Committee (approval number: 20-058). FeCl3 (10%) was used to establish a thrombosis-induced mouse model. Mice were orally administered with 2′-fucosyllactose (500, 1,000 mg/kg BW), 3-fucosyllactose (1,000 mg/kg BW), or ASA (100 mg/kg BW) for 7 days. 2 hours after the last administration, the mice were anesthetized with 2% isoflurane, the left carotid artery was isolated from each mouse, and filter paper (2 mm in diameter) soaked with FeCl3 (10%) was placed on the carotid artery for 2 minutes to induce thrombosis. Blood flow was measured using a blood flow meter (AD meter).

[2] = test system: CRP-induced aggregation of mouse platelets; test: Platelet aggregation induced by CRP; type: cell-based; conditions: CRP 0.15 μg/ml; 2′-fucosyllactose 300 to 1,000 μM, FOS and 3-fucosyllactose 1,000 μM; pretreated 37° C. 15 minutes; vs vehicle; FIG. 2A
[3] = test system: collagen-induced aggregation of mouse platelets; test: Platelet aggregation induced by collagen; type: cell-based; conditions: collagen 0.5 μg/ml; 2′-fucosyllactose 300 to 1,000 μM, FOS and 3-fucosyllactose 1,000 μM; pretreated 37° C. 15 minutes; vs vehicle; FIG. 2B
[4] = test system: thrombin-induced aggregation of mouse platelets; test: Platelet aggregation induced by thrombin; type: cell-based; conditions: thrombin 0.025 U/ml; pretreated 37° C. 15 minutes; vs vehicle; FIG. 2C
Description: (§1) Platelets were collected from the abdominal vein of mice (6-8 weeks of age) using a syringe pretreated with a citrate-dextrose solution (ACD, Sigma). After centrifugation at 300×g at room temperature for 20 minutes to obtain platelet-rich plasma (PRP), 0.5 μM PGE1 was added to the plasma isolated from red blood cells, followed by re-centrifugation at 700×g for 4 minutes. The precipitated platelets were washed with HEPES-Tyrode buffer (5 mM HEPES/NaOH, pH 7.3, 5 mM glucose, 136 mM NaCl, 12 mM NaHCO3, 2.7 mM KCl) containing 10% ACD, followed by centrifugation at 700×g for 5 min. The precipitated platelets were adjusted to a concentration of 3×10^8 cells/mL in HEPES-Tyrode buffer and used in this experiment.
(§2) Mouse platelets immersed in HEPES-Tyrode buffer at a concentration of 3×10^8 cells/mL were pre-treated with a vehicle (distilled water), 1,000 μM FOS, 3′-fucosyllactose, and various concentrations (300 to 1,000 μM) of 2′-fucosyllactose at 37° C. for 15 minutes, and were then activated awith CRP, collagen, thrombin, and thromboxane A2 analogues in a platelet aggregation system. Platelet aggregation was induced at a rate of 1,000 rpm at 37° C. and then measured in a platelet aggregation meter (Chrono-log Corp, Havertown, PA). […]

[5] = test system: thromboxane A2 analogue-induced aggregation of mouse platelets; test: Platelet aggregation induced by thromboxane A2 analogue (U46619); type: cell-based; conditions: thromboxane A2 analogue 3 μM; pretreated 37° C. 15 minutes; vs vehicle; FIG. 2D
Description: as §1, §2

[6] = test system: P-selectin of mouse platelet α-granule; test: Flow cytometry of platelet P-selectin exposure after CRP activation; type: cell-based; conditions: 300 to 1,000 μM, concentration-dependent; 0.15 μg/ml CRP 5 minutes; vs vehicle; FIG. 3A
Description: as §1
(§3) The activity of each of platelet P-selectin and αIIbβ3, which are known biomarkers of platelet activity, was measured using a flow cytometer (Gallios, Beckman Coulter). Mouse platelets were pretreated with a vehicle (distilled water), 1,000 μM FOS and 3-fucosyllactose, and various concentrations (300 to 1,000 μM) of 2′-fucosyllactose at 37° C. for 15 minutes, and were then activated with 0.15 ug/ml CRP at 37° C. for 5 minutes, after which the activity thereof was measured using P-selectin and αIIbβ3 antibodies.
(§4) The mechanism of inhibition of platelet activation by HMOs was determined. […]

[7] = test system: platelet αIIbβ3 integrin; test: Flow cytometry of platelet αIIbβ3 integrin activation after CRP activation; type: cell-based, mouse; conditions: 300 to 1,000 μM, concentration-dependent; 0.15 μg/ml CRP 5 minutes; vs vehicle; FIG. 3B
Description: as §1, §3, §4

[8] = test system: HepG2 cells; test: HMO cytotoxicity test (CCK assay); type: cell-based; conditions: 24 hours treatment, FIG. 4
Description: In this experimental example, the cytotoxicity of HMOs was evaluated by CCK assay (Oh, Y. C.; Jeong, Y. H.; Pak, M. E.; Go, Y., Banhasasim-Tang Attenuates Lipopolysaccharide-Induced Cognitive Impairment by Suppressing Neuroinflammation in Mice. Nutrients 2020, 12, (7)). No protocol for measuring cytotoxicity to platelets has been established, so HepG2 cells were pretreated with an HMO (2′-fucosyllactose or 3-fucosyllactose) in a concentration-dependent manner. After 24 hours, each well was treated with a cell-counting kit solution (Dojindo Molecular Technologies, Inc.), and further incubated for 1 hour, and then absorbance was measured at a wavelength of 450 nm using a microplate reader.

| Compound | carotid artery occlusion time ([1]; 100 mg/kg BW oral, positive control) [min] | inhibition of platelet aggregation induced by CRP [2] | inhibition of platelet aggregation induced by collagen [3] | inhibition of platelet aggregation induced by thrombin [4] | inhibition of platelet aggregation induced by thromboxane A2 analogue [5] | inhibition of activation of P-selectin of mouse platelet α-granule [6] | inhibition of activation of platelet αIIbβ3 integrin [7] | cell death of HepG2 (cell viability, CCK assay) [8] | average carotid artery occlusion time ([1]; 500 mg/kg BW oral) [min] | average carotid artery occlusion time ([1]; 1,000 mg/kg BW oral) [min] |
| --- | --- | --- | --- | --- | --- | --- | --- | --- | --- | --- |
| CC(=O)Oc1ccccc1C(=O)O [aspirin, reference compound] | 18.05 | – | – | – | – | – | – | – | – | – |
| 2′-fucosyllactose | – | significantly inhibited | significantly inhibited | did not exhibit an inhibitory effect | did not exhibit an inhibitory effect | significantly inhibit | significantly inhibit | not observed | 11.79 | 14.52 |
| fructooligosaccharide [FOS] | – | not significantly inhibited | not significantly inhibited | – | – | – | – | – | – | – |
| 3-fucosyllactose [reference compound] | – | not significantly inhibited | not significantly inhibited | – | – | – | – | not observed | – | 8.18 |
